Reference: US20130142796A1, “TREATMENT FOR ANGIOGENIC DISORDERS” (priority 2011, published 2013)
“Also recorded” adds a separate entry of the source.

B1: ranibizumab (antibody, chains of the INN, looked up, V domains shown)
VH: EVQLVESGGGLVQPGGSLRLSCAASGYDFTHYGMNWVRQAPGKGLEWVGWINTYTGEPTYAADFKRRFTFSLDTSKSTAYLQMNSLRAEDTAVYYCAKYPYYYGTSHWYFDVWGQGTLVTVSS
VL: DIQLTQSPSSLSASVGDRVTITCSASQDISNYLNWYQQKPGKAPKVLIYFTSSLHSGVPSRFSGSGSGTDFTLTISSLQPEDFATYYCQQYSTVPWTFGQGTKVEIK
modifications: Fab

Assays:
[1] = tested on: patient with active fluid within or under the retina; assay: Case studies of Patients 1-8: intravitreal injection, lesion activity followed by OCT and fluorescein angiography; type: in vivo, human; conditions: for subretinal fluid: Patient 1, after 21 previous intravitreal injections of either Lucentis or Avastin; for sub-retinal and sub-RPE fluid: Patient 3, after repeated mono-therapy, ranibizumab 11 times or bevacizumab 3 times; for subretinal fluid and cystoid degeneration: despite photodynamic therapy with verteporfin X2, monthly ranibizumab X12, bevacizumab X15
Protocol: In the following examples, “protocol” treatment means that 0.3 mg of pegaptanib in combination with 0.125 mg of bevacizumab or 0.5 mg of ranibizumab, all in commercially available formulations, were injected intravitreally to a patient, using standard procedures for such injections.
The patient provided written consent following a thorough discussion of relative risks and benefits of the potential use of Macugen® in a combination format with simultaneous administration of intravitreal Avastin®.
Macugen® was first injected intravitreally (0.3 mg in 0.09 cc). Optic nerve perfusion and intraocular pressure were assessed. Upon restoration of adequate perfusion and pressure stabilization, the eye was once again sterilized and a second intravitreal injection of Avastin® (1.25 mg in 0.05 cc) was given. Optic nerve perfusion and intraocular pressure were reassessed, and the patient was scheduled for routine follow-up.

[2] = target: heparin-binding domain (HBD) of VEGF (Homo sapiens, UniProt P15692); conditions: Lee et al., FEBS Lett. 2008; cited from earlier work
Sequence of heparin-binding domain (HBD) of VEGF (P15692 137-191 isoform P15692-4 limits assumed): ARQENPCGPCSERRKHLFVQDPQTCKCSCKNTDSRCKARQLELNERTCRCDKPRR

[3] = Patient 4, drug used in isolation after protocol treatment

| Molecule | subretinal fluid [1] | sub-retinal and sub-RPE fluid [1] | fluid [1, 3] | fluid ([1]; Patient 6, re-administration of bevacizumab mono-therapy after protocol treatment) | subretinal fluid and cystoid degeneration ([1]; Patient 7) | fluid and vision ([1]; Patient 7, return to bevacizumab alone after protocol treatment) | binding affinity [2] | subretinal fluid on OCT ([1]; Patient 2, after 33 consecutive intravitreal ranibizumab treatments) | fluorescein angiogram, late frames ([1]; Patient 2, before combination therapy, after 33 intravitreal ranibizumab) | cystoid macular edema (CME) ([1]; Patient 4, despite 10 ranibizumab injections) | lesion activity on angiogram and OCT ([1]; Patient 6, after 22 ranibizumab treatments) | disease management ([1]; Patient 6, ranibizumab mono-therapy after disease was acutely managed with protocol treatment) |
| --- | --- | --- | --- | --- | --- | --- | --- | --- | --- | --- | --- | --- |
| bevacizumab | chronic subretinal fluid | chronic fluid in the sub-retinal and sub-RPE (retinal pigment epithelium) space | recurrent fluid | recurrent fluid | subretinal fluid (SRF); also recorded: chronic subretinal fluid and cystoid degeneration | relapse of fluid and vision loss | – | – | – | – | – | – |
| pegaptanib | – | – | recurrent fluid | – | – | – | high affinity | – | – | – | – | – |
| verteporfin | – | – | – | – | chronic subretinal fluid and cystoid degeneration | – | – | – | – | – | – | – |
| B1 | chronic subretinal fluid | chronic fluid in the sub-retinal and sub-RPE (retinal pigment epithelium) space | – | – | subretinal fluid (SRF); also recorded: chronic subretinal fluid and cystoid degeneration | – | – | subretinal fluid (SRF); also recorded: chronic residual subretinal fluid | leakage from the choroidal neovascular membrane (CNVM) | chronic cystoid macular edema (CME) | persistent lesion activity | could be managed with ranibizumab mono-therapy alone |
